PubChem BioAssay AID248 (DTP/NCI, 2004)
“And” between values parts separate entries of the source, which are not always exact repeats. Identical values can stand only once. Toxic doses and inconclusive results are not listed.

Test system: L1210 leukemia ip in BDF1 mice, survival T/C
Assay: NCI In Vivo Anticancer Drug Screen. Data for tumor model L1210 Leukemia (intraperitoneal) in B6D2F1 (BDF1) mice
Conditions: endpoint: mean survival time, higher = longer survival
Procedure, shortened: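 Mice bearing the transplanted tumor received compound or vehicle. Survival of the treated group was divided by that of the vehicle-treated control group to give the ratio.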

[1] = dose: 100.0 mg/kg/injection, schedule: Q01DX005 (ip), vehicle: saline
[2] = dose: 100.0 mg/kg/injection, schedule: Q01DX009 (ip), vehicle: Klucel (hydroxypropylcellulose) (HPC)
[3] = dose: 100.0 mg/kg/injection, schedule: Q04DX003 (ip), vehicle: saline
[4] = dose: 200.0 mg/kg/injection, schedule: Q04DX003 (ip), vehicle: saline
[5] = dose: 400.0 mg/kg/injection, schedule: Q04DX003 (ip), vehicle: saline
[6] = dose: 100.0 mg/kg/injection, schedule: Q01DX009 (ip), vehicle: saline sonified
[7] = dose: 200.0 mg/kg/injection, schedule: Q01DX009 (ip), vehicle: saline sonified
[8] = dose: 400.0 mg/kg/injection, schedule: Q01DX009 (ip), vehicle: saline sonified
[9] = dose: 100.0 mg/kg/injection, schedule: Q04DX002 (ip), vehicle: Klucel (hydroxypropylcellulose) (HPC)
[10] = dose: 200.0 mg/kg/injection, schedule: Q04DX002 (ip), vehicle: Klucel (hydroxypropylcellulose) (HPC)
[11] = dose: 100.0 mg/kg/injection, schedule: Q04DX002 (ip), vehicle: saline with Tween-80
[12] = dose: 200.0 mg/kg/injection, schedule: Q04DX002 (ip), vehicle: saline with Tween-80
[13] = dose: 400.0 mg/kg/injection, schedule: Q04DX002 (ip), vehicle: saline with Tween-80
[14] = dose: 100.0 mg/kg/injection, schedule: Q01DX001 (ip), vehicle: carboxymethylcellulose (CMC)
[15] = dose: 200.0 mg/kg/injection, schedule: Q01DX001 (ip), vehicle: carboxymethylcellulose (CMC)
[16] = dose: 400.0 mg/kg/injection, schedule: Q01DX001 (ip), vehicle: carboxymethylcellulose (CMC)

`NC1(C(=O)O)CSSC1` was tested, and the T/C (dose: 12.5 mg/kg/injection, schedule: Q01DX005 (ip), vehicle: saline) was 97 % of control, the T/C (dose: 25.0 mg/kg/injection, schedule: Q01DX005 (ip), vehicle: saline) was 99 % of control and the T/C (dose: 50.0 mg/kg/injection, schedule: Q01DX005 (ip), vehicle: saline) was 103 % of control and 114 % of control. For the same compound, the T/C (dose: 100.0 mg/kg/injection, schedule: Q01DX001 (ip), vehicle: saline) was 106 % of control, the T/C [1] was 110 % of control and the T/C (dose: 200.0 mg/kg/injection, schedule: Q01DX001 (ip), vehicle: saline) was 101 % of control.
In the case of `Cc1ccc(N2CSC(=S)N(c3ccc(C)cc3)C2)cc1`, the T/C [2] is reported as 101 % of control, the T/C [3] is reported as 94 % of control and the T/C (dose: 200.0 mg/kg/injection, schedule: Q01DX009 (ip), vehicle: Klucel (hydroxypropylcellulose) (HPC)) is reported as 96 % of control. For the same compound, the T/C [4] was 89 % of control, the T/C (dose: 400.0 mg/kg/injection, schedule: Q01DX009 (ip), vehicle: Klucel (hydroxypropylcellulose) (HPC)) was 95 % of control and the T/C [5] was 88 % of control.
With `NC(C(=O)O)C(=O)c1ccccc1` (stereo not drawn) the T/C [6] was 101 % of control, the T/C [3] was 102 % of control and the T/C [7] was 101 % of control. For the same compound, the T/C [4] was 112 % of control, the T/C [8] was 106 % of control and the T/C [5] was 100 % of control.
With `C=C1c2ccccc2N(C)C1(COc1ccc(Cl)c(C)c1)OC(=O)c1cccc(Cl)c1` (stereo not drawn) the T/C [9] was 95 % of control, the T/C [10] was 95 % of control and the T/C (dose: 400.0 mg/kg/injection, schedule: Q04DX002 (ip), vehicle: Klucel (hydroxypropylcellulose) (HPC)) was 88 % of control.
For `O=C(Nc1ccc(Cl)c(Cl)c1)c1ccc2c(c1)C(=O)OC2=O`, the T/C (dose: 100.0 mg/kg/injection, schedule: Q01DX009 (ip), vehicle: saline with Tween-80) was 106 % of control, the T/C (dose: 200.0 mg/kg/injection, schedule: Q01DX009 (ip), vehicle: saline with Tween-80) was 106 % of control and the T/C (dose: 400.0 mg/kg/injection, schedule: Q01DX009 (ip), vehicle: saline with Tween-80) was 106 % of control.
With `O=[N+]([O-])c1ccc(-c2nnc(-c3ccccc3O)o2)cc1` the T/C (dose: 50.0 mg/kg/injection, schedule: Q04DX002 (ip), vehicle: saline with Tween-80) was 92 % of control, the T/C [11] was 89 % of control and the T/C [12] was 89 % of control. For the same compound, the T/C [13] was 89 % of control.
`Cc1ccc(OCCOc2ccc(C)c(CC(Cl)(Cl)Cl)c2)cc1CC(Cl)(Cl)Cl` was tested, and the T/C (dose: 100.0 mg/kg/injection, schedule: Q01DX001 (ip), vehicle: DMSO) was 88 % of control, the T/C (dose: 200.0 mg/kg/injection, schedule: Q01DX001 (ip), vehicle: DMSO) was 89 % of control and the T/C (dose: 400.0 mg/kg/injection, schedule: Q01DX001 (ip), vehicle: DMSO) was 88 % of control.
For `COc1ccc(CC[n+]2cccc(C(C)=O)c2)cc1OC`, the T/C (dose: 75.0 mg/kg/injection, schedule: Q01DX001 (ip), vehicle: saline) was 103 % of control, the T/C (dose: 150.0 mg/kg/injection, schedule: Q01DX001 (ip), vehicle: saline) was 106 % of control and the T/C (dose: 300.0 mg/kg/injection, schedule: Q01DX001 (ip), vehicle: saline) was 113 % of control.
In the case of `COC(=O)C1=C(C(=O)OC)C2C=CC1C1(C)N=C(OC)C21C` (stereo not drawn), the T/C [11] is reported as 100 % of control, the T/C [12] is reported as 100 % of control and the T/C [13] is reported as 102 % of control.
In the case of `O=C(c1ccc(-c2ccccc2)cc1)C1CC1c1ccccc1` (stereo not drawn), the T/C [6] is reported as 97 % of control, the T/C [7] is reported as 96 % of control and the T/C [8] is reported as 91 % of control.
`O=C(O)C1CC=CCC1c1ccccc1` (stereo not drawn) was tested, and the T/C (dose: 100.0 mg/kg/injection, schedule: Q04DX003 (ip), vehicle: other) was 96 % of control, the T/C (dose: 200.0 mg/kg/injection, schedule: Q04DX003 (ip), vehicle: other) was 96 % of control and the T/C (dose: 400.0 mg/kg/injection, schedule: Q04DX003 (ip), vehicle: other) was 101 % of control.
`CC1(C)N=C(N)N=C(N)N1c1cccc(Cc2ccccc2)c1` was tested, and the T/C (dose: 25.0 mg/kg/injection, schedule: Q01DX001 (ip), vehicle: saline with Tween-80) was 92 % of control and the T/C (dose: 50.0 mg/kg/injection, schedule: Q01DX001 (ip), vehicle: saline with Tween-80) was 106 % of control.
For `CCCCCCCCCCCCNc1nnc(Cl)c2ccccc12`, the T/C (dose: 100.0 mg/kg/injection, schedule: Q04DX003 (ip), vehicle: Klucel (hydroxypropylcellulose) (HPC)) was 95 % of control, the T/C (dose: 200.0 mg/kg/injection, schedule: Q04DX003 (ip), vehicle: Klucel (hydroxypropylcellulose) (HPC)) was 97 % of control and the T/C (dose: 400.0 mg/kg/injection, schedule: Q04DX003 (ip), vehicle: Klucel (hydroxypropylcellulose) (HPC)) was 92 % of control.
`O=C1O/C(=C\c2ccccc2)c2c(Br)c(Br)c(Br)c(Br)c21` was tested, and the T/C [14] was 94 % of control, the T/C [15] was 91 % of control and the T/C [16] was 96 % of control.
With `CN(C)Cc1ccnc(Cl)n1` the T/C (dose: 2.0 mg/kg/injection, schedule: Q01DX Z (ip), vehicle: methylcellulose (MC)) was 93 % of control.
For `CC(C)(C)c1ccc(S(=O)(=O)c2ccc(C(C)(C)C)c(N=C=O)c2)cc1N=C=O`, the T/C (dose: 75.0 mg/kg/injection, schedule: Q04DX002 (ip), vehicle: saline with Tween-80) was 96 % of control, the T/C (dose: 150.0 mg/kg/injection, schedule: Q04DX002 (ip), vehicle: saline with Tween-80) was 101 % of control and the T/C (dose: 300.0 mg/kg/injection, schedule: Q04DX002 (ip), vehicle: saline with Tween-80) was 93 % of control.
In the case of `Nc1ncnc2c1ncn2C1C=COC(CO)C1O` (stereo not drawn), the T/C [1] is reported as 100 % of control and the T/C (dose: 200.0 mg/kg/injection, schedule: Q01DX005 (ip), vehicle: saline) is reported as 97 % of control.
With `CCN(CC)C(C)CN1c2ccccc2Sc2ccccc21` (stereo not drawn) the T/C (dose: 25.0 mg/kg/injection, schedule: Q01DX009 (ip), vehicle: Klucel (hydroxypropylcellulose) (HPC)) was 97 % of control, the T/C (dose: 25.0 mg/kg/injection, schedule: Q04DX003 (ip), vehicle: saline) was 88 % of control and the T/C (dose: 50.0 mg/kg/injection, schedule: Q01DX009 (ip), vehicle: Klucel (hydroxypropylcellulose) (HPC)) was 94 % of control. For the same compound, the T/C [2] was 103 % of control, the T/C [3] was 96 % of control and the T/C [4] was 93 % of control.
In the case of `CCCCCNC(=S)Nc1ccccc1`, the T/C (dose: 38.0 mg/kg/injection, schedule: Q04DX003 (ip), vehicle: other) is reported as 98 % of control, the T/C (dose: 75.0 mg/kg/injection, schedule: Q01DX001 (ip), vehicle: other) is reported as 98 % of control and the T/C (dose: 75.0 mg/kg/injection, schedule: Q04DX003 (ip), vehicle: other) is reported as 102 % of control. The T/C (dose: 150.0 mg/kg/injection, schedule: Q01DX001 (ip), vehicle: other) was 112 % of control, the T/C (dose: 150.0 mg/kg/injection, schedule: Q04DX003 (ip), vehicle: other) was 96 % of control and the T/C (dose: 300.0 mg/kg/injection, schedule: Q01DX001 (ip), vehicle: other) was 110 % of control.
`O=NN(CCCl)C(=O)Nc1ccc2c(c1)-c1ccccc1C2` was tested, and the T/C (dose: 118.0 mg/kg/injection, schedule: Q01DX001 (ip), vehicle: carboxymethylcellulose (CMC)) was 121 % of control, the T/C (dose: 118.0 mg/kg/injection, schedule: Q01DX009 (ip), vehicle: carboxymethylcellulose (CMC)) was 188 % of control and 196 % of control and the T/C (dose: 177.0 mg/kg/injection, schedule: Q01DX009 (ip), vehicle: carboxymethylcellulose (CMC)) was 122 % of control. The T/C (dose: 266.0 mg/kg/injection, schedule: Q01DX009 (ip), vehicle: carboxymethylcellulose (CMC)) was 88 % of control, the T/C [16] was 159 % of control and the T/C (dose: 400.0 mg/kg/injection, schedule: Q01DX009 (ip), vehicle: carboxymethylcellulose (CMC)) was 92 % of control and 113 % of control. For the same compound, the T/C (dose: 600.0 mg/kg/injection, schedule: Q01DX001 (ip), vehicle: carboxymethylcellulose (CMC)) was 150 % of control.
For `O=C(O)c1cccc(Sc2ccccc2)c1`, the T/C [14] was 100 % of control, the T/C [15] was 90 % of control and the T/C [16] was 102 % of control.
`Cc1cc(NCC(=O)NN)ccc1Cl` was tested, and the T/C (dose: 50.0 mg/kg/injection, schedule: Q04DX002 (ip), vehicle: Klucel (hydroxypropylcellulose) (HPC)) was 103 % of control, the T/C [9] was 104 % of control and 114 % of control and the T/C [10] was 86 % of control.
`CCCCCCCCCCCCSc1ccc2ccccc2c1` was tested, and the T/C (dose: 100.0 mg/kg/injection, schedule: Q01DX001 (ip), vehicle: Klucel (hydroxypropylcellulose) (HPC)) was 87 % of control and the T/C (dose: 200.0 mg/kg/injection, schedule: Q01DX001 (ip), vehicle: Klucel (hydroxypropylcellulose) (HPC)) was 92 % of control.
`Cc1ccc(I)c([N+](=O)[O-])c1` was tested, and the T/C (dose: 50.0 mg/kg/injection, schedule: Q01DX001 (ip), vehicle: carboxymethylcellulose (CMC)) was 96 % of control, the T/C [14] was 89 % of control and the T/C [15] was 91 % of control. The T/C [16] was 100 % of control.
